Test results reported in patent US8901118B2, “Compounds and methods for kinase modulation, and indications therefor” (Plexxikon Inc., priority 2010, dated 2014).
pIC50: −log10 of the molar value.

Columns and labels:
c-Kit kinase = c-Kit kinase (Homo sapiens, UniProt P10721); assay: c-Kit kinase biochemical activity assay (AlphaScreen, biotin-(E4Y)10 phosphorylation); conditions: 100 μM ATP; read-out: Biochemical Inhibition IC50 Kit
Method in brief: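 AlphaScreen read-out (streptavidin donor, anti-phosphotyrosine PY20 acceptor beads, EDTA stop) of c-Kit activity. Reaction: 0.75 ng kinase, 100 µM ATP, 30 nM biotin-(E4Y)10, 25 mM HEPES pH 7.5, 2 mM MgCl2, 2 mM MnCl2, 5% DMSO, 1 h room temperature. IC50 derived over an 8-point, two-fold dilution series.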

CYP3A4(BFC) = CYP3A4(BFC) (Homo sapiens, UniProt P08684); assay: CYP3A4(BFC) inhibition; type: in vitro ADME; conditions: CYP3A4, substrate BFC; read-out: Cyp IC50 3A4(BFC)
CYP3A4(BFC), sequence (P08684 whole entry): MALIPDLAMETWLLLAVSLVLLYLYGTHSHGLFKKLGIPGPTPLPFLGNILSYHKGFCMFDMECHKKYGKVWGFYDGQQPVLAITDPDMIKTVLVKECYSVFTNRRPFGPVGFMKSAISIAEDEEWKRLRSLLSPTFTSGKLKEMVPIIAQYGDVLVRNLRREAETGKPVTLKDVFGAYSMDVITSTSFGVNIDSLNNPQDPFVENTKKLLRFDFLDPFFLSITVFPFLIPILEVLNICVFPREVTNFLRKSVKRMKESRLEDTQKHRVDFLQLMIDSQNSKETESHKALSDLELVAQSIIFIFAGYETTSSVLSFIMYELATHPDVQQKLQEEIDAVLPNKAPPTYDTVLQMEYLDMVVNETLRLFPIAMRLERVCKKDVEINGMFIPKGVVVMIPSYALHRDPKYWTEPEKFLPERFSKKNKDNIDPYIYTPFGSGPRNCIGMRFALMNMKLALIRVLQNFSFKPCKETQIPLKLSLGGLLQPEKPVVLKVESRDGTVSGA
Method in brief: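 This fluorescence assay tracks how test compounds reduce CYP3A4 turnover of BFC, with enzyme and substrate from BD Biosciences. A 10-point 1:1 dilution series in cofactor mix (1.3% NADPH Regeneration Solution A, 1.04% Solution B, 5% acetonitrile, 0.05% DMSO) was dispensed at 10 μL into 384 well plates, preincubated 10 minutes at 37° C, then incubated 30 min and read on a Tecan Safire 2.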

c-Kit kinase, sequence (P10721 26-976): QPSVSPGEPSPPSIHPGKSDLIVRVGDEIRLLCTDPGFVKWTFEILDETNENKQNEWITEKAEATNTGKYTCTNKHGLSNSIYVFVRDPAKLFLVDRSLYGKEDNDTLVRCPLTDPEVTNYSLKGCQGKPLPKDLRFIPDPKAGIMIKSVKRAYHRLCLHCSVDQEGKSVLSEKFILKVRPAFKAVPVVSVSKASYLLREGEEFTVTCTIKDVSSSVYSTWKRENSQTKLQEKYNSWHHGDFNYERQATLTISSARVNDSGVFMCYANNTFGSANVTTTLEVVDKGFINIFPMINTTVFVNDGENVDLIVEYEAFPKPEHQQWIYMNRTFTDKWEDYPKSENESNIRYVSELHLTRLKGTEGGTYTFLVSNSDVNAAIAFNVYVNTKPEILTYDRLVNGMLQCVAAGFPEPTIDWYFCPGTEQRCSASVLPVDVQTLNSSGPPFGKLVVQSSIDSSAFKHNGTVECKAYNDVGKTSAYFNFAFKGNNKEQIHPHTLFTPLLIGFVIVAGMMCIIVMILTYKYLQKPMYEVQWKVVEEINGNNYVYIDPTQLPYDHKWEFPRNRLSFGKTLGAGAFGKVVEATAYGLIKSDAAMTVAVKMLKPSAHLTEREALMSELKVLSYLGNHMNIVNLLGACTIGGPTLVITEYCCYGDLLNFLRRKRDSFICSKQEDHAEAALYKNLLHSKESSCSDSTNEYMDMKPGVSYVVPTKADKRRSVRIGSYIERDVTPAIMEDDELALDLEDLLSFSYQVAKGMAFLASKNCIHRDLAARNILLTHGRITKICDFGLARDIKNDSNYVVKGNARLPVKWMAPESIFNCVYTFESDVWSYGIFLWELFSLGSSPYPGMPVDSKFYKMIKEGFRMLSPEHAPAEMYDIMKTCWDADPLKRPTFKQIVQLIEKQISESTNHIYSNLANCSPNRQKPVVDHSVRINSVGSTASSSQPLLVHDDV

Compound	pIC50 (c-Kit kinase)	pIC50 (CYP3A4(BFC))
COCCOc1ncnc2[nH]cc(Cc3ccc(Nc4ccc(OC)nc4)nc3F)c12 [Compound P-4019, {6-Fluoro-5-[4-(2-methoxy-ethoxy)-7H-pyrrolo[2,3-d]pyrimidin-5-ylmethyl]-pyridin-2-yl}-(6-methoxy-pyridin-3-yl)-amine]	> 6.00	5.00 to 5.30
CCOc1ccc(Nc2ccc(C(=O)c3c[nH]c4ncnc(OC)c34)c(F)n2)cn1 [Compound P-4024, [6-(6-Ethoxy-pyridin-3-ylamino)-2-fluoro-pyridin-3-yl]-(4-methoxy-7H-pyrrolo[2,3-d]pyrimidin-5-yl)-methanone]	> 6.00	> 5.30
CCc1ccc(Nc2ccc(Cc3c[nH]c4ncnc(C5CC5)c34)c(F)n2)cn1 [Compound P-4028, [5-(4-Cyclopropyl-7H-pyrrolo[2,3-d]pyrimidin-5-ylmethyl)-6-fluoro-pyridin-2-yl]-(6-ethyl-pyridin-3-yl)-amine]	> 7.00	< 5.00
Cc1ccc(Nc2ccc(Cc3c[nH]c4ncnc(C5CC5)c34)c(F)n2)cn1 [Compound P-4030, [5-(4-Cyclopropyl-7H-pyrrolo[2,3-d]pyrimidin-5-ylmethyl)-6-fluoro-pyridin-2-yl]-(6-methyl-pyridin-3-yl)-amine]	> 6.00	< 5.00
CCn1cc(Nc2ccc(Cc3c[nH]c4ncnc(C5CC5)c34)c(F)n2)cn1 [Compound P-4036, [5-(4-Cyclopropyl-7H-pyrrolo[2,3-d]pyrimidin-5-ylmethyl)-6-fluoro-pyridin-2-yl]-(1-ethyl-1H-pyrazol-4-yl)-amine]	> 6.00	5.00 to 5.30
Fc1nc(NC2CCC(F)(F)CC2)ccc1Cc1c[nH]c2ncnc(NCC(F)(F)F)c12 [Compound P-4128, 5-[[6-[(4,4-difluorocyclohexyl)amino]-2-fluoro-3-pyridyl]methyl]-N-(2,2,2-trifluoroethyl)-7H-pyrrolo[2,3-d]pyrimidin-4-amine]	< 6.00	< 5.00
Fc1nc(Nc2ccc(C3CC3)nc2)ccc1Cc1c[nH]c2ncnc(NCC(F)(F)F)c12 [Compound P-4130, 5-[[6-[(6-cyclopropyl-3-pyridyl)amino]-2-fluoro-3-pyridyl]methyl]-N-(2,2,2-trifluoroethyl)-7H-pyrrolo[2,3-d]pyrimidin-4-amine]	> 6.00	> 5.30

The next lines start with the values.

pIC50 (c-Kit kinase)	pIC50 (CYP3A4(BFC))	Compound
> 7.00	5.00 to 5.30	CCOc1ncnc2[nH]cc(Cc3ccc(Nc4ccc(OC)nc4)nc3F)c12 [Compound P-4018, [5-(4-Ethoxy-7H-pyrrolo[2,3-d]pyrimidin-5-ylmethyl)-6-fluoro-pyridin-2-yl]-(6-methoxy-pyridin-3-yl)-amine]
> 6.00	5.00 to 5.30	COc1ccc(Nc2ccc(C(=O)c3c[nH]c4ncnc(C5CC5)c34)c(F)n2)cn1 [Compound P-4022, (4-cyclopropyl-7H-pyrrolo[2,3-d]pyrimidin-5-yl)-[2-fluoro-6-(6-methoxy-pyridin-3-ylamino)-pyridin-3-yl]-methanone]
> 6.00	> 5.30	COc1ccc(Nc2ccc(Cc3c[nH]c4ncnc(C5CC5)c34)c(F)n2)cn1 [Compound P-4023, [5-(4-cyclopropyl-7H-pyrrolo[2,3-d]pyrimidin-5-ylmethyl)-6-fluoro-pyridin-2-yl]-(6-methoxy-pyridin-3-yl)-amine]
< 6.00	> 5.30	CCOc1ncnc2[nH]cc(C(=O)c3ccc(Nc4ccc(OC)nc4)nc3F)c12 [Compound P-4025, (4-Ethoxy-7H-pyrrolo[2,3-d]pyrimidin-5-yl)-[2-fluoro-6-(6-methoxy-pyridin-3-ylamino)-pyridin-3-yl]-methanone]
> 7.00	< 5.00	CCc1ccc(Nc2ccc(C(=O)c3c[nH]c4ncnc(C5CC5)c34)c(F)n2)cn1 [Compound P-4029, (4-Cyclopropyl-7H-pyrrolo[2,3-d]pyrimidin-5-yl)-[6-(6-ethyl-pyridin-3-ylamino)-2-fluoro-pyridin-3-yl]-methanone]
> 7.00	< 5.00	Cc1ccc(Nc2ccc(C(=O)c3c[nH]c4ncnc(C5CC5)c34)c(F)n2)cn1 [Compound P-4031, (4-Cyclopropyl-7H-pyrrolo[2,3-d]pyrimidin-5-yl)-[2-fluoro-6-(6-methyl-pyridin-3-ylamino)-pyridin-3-yl]-methanone]
> 6.00	5.00 to 5.30	CCn1cc(Nc2ccc(C(=O)c3c[nH]c4ncnc(C5CC5)c34)c(F)n2)cn1 [Compound P-4037, (4-Cyclopropyl-7H-pyrrolo[2,3-d]pyrimidin-5-yl)-[6-(1-ethyl-1H-pyrazol-4-ylamino)-2-fluoro-pyridin-3-yl]-methanone]
> 6.00	> 5.30	Fc1nc(NC2CCC(F)(F)CC2)ccc1Cc1c[nH]c2ncnc(NC3CC3)c12 [Compound P-4129, N-cyclopropyl-5-[[6-[(4,4-difluorocyclohexyl)amino]-2-fluoro-3-pyridyl]methyl]-7H-pyrrolo[2,3-d]pyrimidin-4-amine]
